Measured values reported in patent US7473700B2, “1,2,4-triazole derivatives, processes for the preparation thereof, and pharmaceutical compositions containing the same” (CJ Corporation, priority 2002, dated 2009).

How the values were obtained:
[1] = target: T1, COX-2 (Mus musculus, UniProt Q05769); experiment: Assay for the COX-2 inhibitory activity using RAW 264.7 cell line (PGE2 inhibition); assay type: cell-based; conditions: RAW264.7, 10 nM test compound, RAW 264.7 cells, interferon γ and LPS, 18 hours, read-out: Cyclooxygenase (COX) Inhibition (%) COX-2 (10 nM)
T1 construct: host or cells: RAW 264.7 cells, aspirin-pretreated, then induced with interferon gamma and LPS
T1 sequence (Q05769 18-604): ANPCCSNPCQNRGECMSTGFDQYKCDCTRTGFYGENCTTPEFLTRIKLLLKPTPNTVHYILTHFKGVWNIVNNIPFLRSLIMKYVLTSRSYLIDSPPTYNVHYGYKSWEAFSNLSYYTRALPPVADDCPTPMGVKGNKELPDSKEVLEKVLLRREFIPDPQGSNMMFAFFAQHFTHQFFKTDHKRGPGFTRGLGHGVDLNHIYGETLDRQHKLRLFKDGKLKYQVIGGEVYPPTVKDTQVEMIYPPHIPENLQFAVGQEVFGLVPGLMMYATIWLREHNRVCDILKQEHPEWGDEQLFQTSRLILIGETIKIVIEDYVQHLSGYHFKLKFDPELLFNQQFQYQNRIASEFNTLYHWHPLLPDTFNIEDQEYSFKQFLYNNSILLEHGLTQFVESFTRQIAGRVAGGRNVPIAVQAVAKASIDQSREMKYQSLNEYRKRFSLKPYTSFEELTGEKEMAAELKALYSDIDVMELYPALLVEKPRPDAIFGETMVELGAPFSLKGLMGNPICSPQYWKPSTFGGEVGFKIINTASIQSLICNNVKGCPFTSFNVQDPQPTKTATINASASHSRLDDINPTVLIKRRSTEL
Method: Each well was treated with 250 μM of aspirin and incubated at 37° C. for 2 hours. After the culture media were replaced with new culture media, the new culture media were treated with a test compound (10 nM) and incubated for 30 minutes. Then, each well was treated with interferon γ (100 units/ml) and lipopolysaccharide (LPS, 100 ng/ml) and incubated for 18 hours. The culture media were transferred to other test tubes. The concentration of PGE2 was quantified by means of the EIA kit (Cayman Chemicals).
(§1) The percentages of the COX inhibition were calculated according to the following equation: % Inhibition=(concentration of PGE2 in test compound-untreated sample−concentration of PGE2 in test compound-treated sample)/(concentration of PGE2 in test compound-untreated sample)×100

[2] = target: T2, COX-1 (Homo sapiens, UniProt P23219); experiment: Assay for the COX-1 inhibitory activity using U-937 (PGE2 inhibition); assay type: cell-based; conditions: 1 μM test compound; U-937 human lymphoma cells; PGE2 after arachidonic acid; read-out: Cyclooxygenase (COX) Inhibition (%) COX-1 (1 μM)
T2 construct: host or cells: U-937 human lymphoma cells
Method: The collected cells were diluted with HBSS (×1, Hank's balanced salt solution) to a concentration of 1×10^6 cells/ml. 1 ml of the dilute cell solution was placed into each well of 12-well plates. 5 μl of 1 μM solution of a test compound in DMSO and 5 μl of DMSO as a control were added to the wells. The wells were incubated in CO2 incubator at 37° C. for 15 minutes. Separately, 10 mM stock solution of arachidonic acid in ethanol was diluted ten times in ethanol to prepare 1 mM solution of arachidonic acid. Arachidonic acid acts as a substrate. 10 μl of the 1 mM solution of arachidonic acid was added to each well and incubated at CO2 incubator at 37° C. for 30 minutes. The cell solution of each well was placed in a centrifuge test tube and centrifuged at 10,000 rpm at 4° C. for 5 minutes. The concentration of PGE2 in the collected cells and the supernatant was quantified by means of a monoclonal kit (Cayman Chemicals). The percentages of PGE2 inhibition in a group of the test compound-treated cells in relation to a group of the DMSO-treated cells were calculated. Based on the calculated values, the COX-1 inhibitory activities were evaluated.
as §1

T2 sequence (P23219 24-599): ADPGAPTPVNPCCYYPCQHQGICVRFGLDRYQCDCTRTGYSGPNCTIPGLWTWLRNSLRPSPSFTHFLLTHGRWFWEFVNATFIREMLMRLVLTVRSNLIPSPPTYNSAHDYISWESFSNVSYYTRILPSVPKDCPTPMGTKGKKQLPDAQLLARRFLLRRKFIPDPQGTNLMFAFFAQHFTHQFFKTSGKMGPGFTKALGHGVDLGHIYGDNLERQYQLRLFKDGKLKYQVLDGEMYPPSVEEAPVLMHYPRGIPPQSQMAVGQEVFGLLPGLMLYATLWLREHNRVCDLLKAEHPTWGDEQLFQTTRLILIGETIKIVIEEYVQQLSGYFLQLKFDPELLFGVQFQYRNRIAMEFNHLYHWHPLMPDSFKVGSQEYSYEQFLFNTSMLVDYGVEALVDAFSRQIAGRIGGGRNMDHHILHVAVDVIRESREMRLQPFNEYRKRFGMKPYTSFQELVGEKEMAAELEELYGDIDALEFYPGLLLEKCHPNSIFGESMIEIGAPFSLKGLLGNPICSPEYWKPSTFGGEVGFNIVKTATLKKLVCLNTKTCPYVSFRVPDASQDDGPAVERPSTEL

SMILES | inhibition at 0.01 µM [1] | inhibition at 1 µM [2]
CCOc1nc(-c2ccc(OC)c(F)c2)n(-c2ccc(S(N)(=O)=O)cc2)n1 [Example 33, 4-[3-ethoxy-5-(3-fluoro-4-methoxyphenyl)-1,2,4-triazole-1-yl]-benzenesulfonamide] | 10.5% | 23.7%
COc1ccc(-c2nc(O)nn2-c2ccc(S(N)(=O)=O)cc2)cc1F [Example 20, 4-[3-hydroxy-5-(3-fluoro-4-methoxyphenyl)-1,2,4-triazole-1-yl]-benzenesulfonamide] | 11% | 26.4%
NS(=O)(=O)c1ccc(-n2nc(O)nc2-c2ccc(F)cc2)cc1 [Example 18, 4-[3-hydroxy-5-(4-fluorophenyl)-1,2,4-triazole-1-yl]-benzenesulfonamide] | 6.7% | 19.5%
COc1ccc(-c2nc(O)nn2-c2ccc(S(N)(=O)=O)cc2)cc1 [Example 16, 4-[3-hydroxy-5-(4-methoxyphenyl)-1,2,4-triazole-1-yl]-benzenesulfonamide] | 11.2% | 35.5%
COc1ccc(-c2nc(OC3CCCC3)nn2-c2ccc(S(N)(=O)=O)cc2)cc1 [Example 37, 4-[3-cyclopentyloxy-5-(4-methoxyphenyl)-1,2,4-triazole-1-yl]-benzenesulfonamide] | 22.3% | 12%
CC(C)Oc1nc(-c2ccc(F)cc2)n(-c2ccc(S(N)(=O)=O)cc2)n1 [Example 48, 4-[3-isopropoxy-5-(4-fluorophenyl)-1,2,4-triazole-1-yl]-benzenesulfonamide] | 9.8% | 26.4%
CCSc1nc(-c2ccccc2)n(-c2ccc(S(N)(=O)=O)cc2)n1 [Example 34, 4-(3-ethylthio-5-phenyl-1,2,4-triazole-1-yl)-benzenesulfonamide] | 9.5% | 31.2%
CCCOc1nc(-c2ccc(F)cc2)n(-c2ccc(S(N)(=O)=O)cc2)n1 [Example 36, 4-[3-propoxy-5-(4-fluorophenyl)-1,2,4-triazole-1-yl]-benzenesulfonamide] | 17.2% | 27%
COc1nc(-c2ccc(F)cc2)n(-c2ccc(S(N)(=O)=O)cc2)n1 [Example 26, 4-[3-methoxy-5-(4-fluorophenyl)-1,2,4-triazole-1-yl]-benzenesulfonamide] | 13.5% | 44.5%
CCOc1nc(-c2ccc(F)cc2)n(-c2ccc(S(N)(=O)=O)cc2)n1 [Example 32, 4-[3-ethoxy-5-(4-fluorophenyl)-1,2,4-triazole-1-yl]-benzenesulfonamide] | 11.5% | 21.4%
CC(C)Sc1nc(-c2ccccc2)n(-c2ccc(S(N)(=O)=O)cc2)n1 [Example 49, 4-(3-isopropylthio-5-phenyl-1,2,4-triazole-1-yl)-benzenesulfonamide] | 24.5% | 33.1%
CCOc1nc(-c2ccc(OC)cc2)n(-c2ccc(S(N)(=O)=O)cc2)n1 [Example 30, 4-[3-ethoxy-5-(4-methoxyphenyl)-1,2,4-triazole-1-yl]-benzenesulfonamide] | 13.2% | 16.4%
CCCOc1nc(-c2ccc(OC)cc2)n(-c2ccc(S(N)(=O)=O)cc2)n1 [Example 35, 4-[3-propoxy-5-(4-methoxyphenyl)-1,2,4-triazole-1-yl]-benzenesulfonamide] | 16.1% | 23.4%
N#CCOc1nc(-c2ccc(F)cc2)n(-c2ccc(S(N)(=O)=O)cc2)n1 [Example 42, 4-[3-cyanomethoxy-5-(4-fluorophenyl)-1,2,4-triazole-1-yl]-benzenesulfonamide] | 13.3% | 26.6%
COc1ccc(-c2nc(OC(C)C)nn2-c2ccc(S(C)(=O)=O)cc2)cc1 [Example 63, 1-(4-methanesulfonylphenyl)-3-isopropoxy-5-(4-methoxyphenyl)-1H-1,2,4-triazole] | 26.4% | 22.6%
NS(=O)(=O)c1ccc(-n2nc(OC3CC3)nc2-c2ccccc2)cc1 [Example 58, 4-[3-cyclopropoxy-5-phenyl-1,2,4-triazole-1-yl]-benzenesulfonamide] | 30.4% | 34.3%
CSc1nc(-c2ccccc2)n(-c2ccc(S(N)(=O)=O)cc2)n1 [Example 29, 4-(3-methylthio-5-phenyl-1,2,4-triazole-1-yl)-benzenesulfonamide] | 11.1% | 17.7%
COc1nc(-c2ccc(OC)c(F)c2)n(-c2ccc(S(N)(=O)=O)cc2)n1 [Example 28, 4-[3-methoxy-5-(3-fluoro-4-methoxyphenyl)-1,2,4-triazole-1-yl]-benzenesulfonamide] | 10.5% | 21.2%
NS(=O)(=O)c1ccc(-n2nc(S)nc2-c2ccccc2)cc1 [Example 21, 4-(3-mercapto-5-phenyl-1,2,4-triazole-1-yl)-benzenesulfonamide] | 12.6% | 25.7%
COc1ccc(-c2nc(OC3CCCCC3)nn2-c2ccc(S(N)(=O)=O)cc2)cc1 [Example 39, 4-[3-cyclohexyloxy-5-(4-methoxyphenyl)-1,2,4-triazole-1-yl]-benzenesulfonamide] | 20.7% | 15.5%
CCOc1nc(-c2ccccc2)n(-c2ccc(S(N)(=O)=O)cc2)n1 [Example 31, 4-(3-ethoxy-5-phenyl-1,2,4-triazole-1-yl)-benzenesulfonamide] | 16.4% | 15.5%
CCOc1nc(-c2ccc(OC)cc2)n(-c2ccc(S(C)(=O)=O)cc2)n1 [Example 61, 1-(4-methanesulfonylphenyl)-3-ethoxy-5-(4-methoxylphenyl)-1H-1,2,4-triazole] | 34.2% | 33.1%
CCOc1ccc(-c2nc(O)nn2-c2ccc(S(N)(=O)=O)cc2)cc1 [Example 17, 4-[3-hydroxy-5-(4-ethoxyphenyl)-1,2,4-triazole-1-yl]-benzenesulfonamide] | 10.5% | 48.8%
C#CCOc1nc(-c2ccc(OC)cc2)n(-c2ccc(S(N)(=O)=O)cc2)n1 [Example 43, 4-[3-prop-2-ynyloxy-5-(4-methoxyphenyl)-1,2,4-triazole-1-yl]-benzenesulfonamide] | 16.7% | 30.4%
C=CCOc1nc(-c2ccc(F)cc2)n(-c2ccc(S(N)(=O)=O)cc2)n1 [Example 54, 4-[3-allyloxy-5-(4-fluorophenyl)-1,2,4-triazole-1-yl]-benzenesulfonamide] | 15.5% | 26.4%
NS(=O)(=O)c1ccc(-n2nc(OCC(F)(F)F)nc2-c2ccc(F)cc2)cc1 [Example 56, 4-[3-(2,2,2-trifluoroethoxy)-5-(4-fluorophenyl)-1,2,4-triazole-1-yl]-benzenesulfonamide] | 27.7% | 37.2%
C#CCOc1nc(-c2ccc(F)cc2)n(-c2ccc(S(N)(=O)=O)cc2)n1 [Example 44, 4-[3-prop-2-ynyloxy-5-(4-fluorophenyl)-1,2,4-triazole-1-yl]-benzenesulfonamide] | 14.5% | 27.2%
COc1ccc(-c2nc(OC)nn2-c2ccc(S(C)(=O)=O)cc2)cc1 [Example 59, 1-(4-methanesulfonylphenyl)-3-methoxy-5-(4-methoxylphenyl)-1H-1,2,4-triazole] | 27.2% | 22.6%
COc1ccc(-c2nc(OCc3ccccc3)nn2-c2ccc(S(N)(=O)=O)cc2)cc1F [Example 50, 4-[3-benzyloxy-5-(3-fluoro-4-methoxyphenyl)-1,2,4-triazole-1-yl]-benzenesulfonamide] | 16.1% | 28%
